From BindingDB's records for doi:10.1016/j.bmc.2010.01.042 (Nerviano Medical Sciences, 2010)

Molecular target: 3-phosphoinositide-dependent protein kinase 1 (Homo sapiens) (UniProt O15530)
Test: Inhibition of PDK1 by scintillation proximity assay

IC50 [µM]	SMILES
> 10	CC(C)(C)C(=O)N1Cc2c(n[nH]c2NC(=O)c2cc(F)cc(F)c2)C1(C)C [N-[5-(2,2-Dimethylpropanoyl)-6,6-dimethyl-1,4,5,6-tetrahydropyrrolo[3,4-c]pyrazol-3-yl]-3,5-difluorobenzamide]
> 10	CC(C)CC(=O)Nc1[nH]nc2c1CN(C(=O)C1CCN(C)CC1)C2(C)C
